Assay results published in patent US20220110325A1, “PESTICIDALLY ACTIVE AZOLE-AMIDE COMPOUNDS” (SYNGENTA CROP PROTECTION AG, priority 2019, published 2022).

How the values were obtained:
Type in all cases: in vivo
[1] = test system: Spodoptera littoralis (Egyptian Cotton Leaf Worm); test: Spodoptera littoralis (Egyptian cotton leaf worm), sprayed cotton leaf discs; details: foliar, 72 h, application rate of 200 ppm, L1 larvae, 3 days after infestation, read-out: control in at least one of the three categories (mortality, anti-feeding, or growth inhibition)
Description: Example B10: Spodoptera littoralis (Egyptian Cotton Leaf Worm)
Cotton leaf discs were placed onto agar in 24-well microtiter plates and sprayed with aqueous test solutions prepared from 10,000 ppm DMSO stock solutions. After drying the leaf discs were infested with five L1 larvae. The samples were assessed for mortality, anti-feeding effect, and growth inhibition in comparison to untreated samples 3 days after infestation. Control of Spodoptera littoralis by a test sample is given when at least one of the categories mortality, anti-feedant effect, and growth inhibition is higher than the untreated sample.

[2] = test system: Chilo suppressalis (Striped Rice Stemborer); test: Chilo suppressalis (striped rice stemborer), artificial diet; details: 144 h, application rate of 200 ppm, L2 larvae, 6 days after infestation, read-out: control in at least one of the three categories (mortality, anti-feeding or growth inhibition)
Description: Example 14: Chilo suppressalis (Striped Rice Stemborer)
24-well microtiter plates with artificial diet were treated with aqueous test solutions prepared from 10,000 ppm DMSO stock solutions by pipetting. After drying, the plates were infested with L2 larvae (6-8 per well). The samples were assessed for mortality, anti-feeding effect, and growth inhibition in comparison to untreated samples 6 days after infestation. Control of Chilo suppressalis by a test sample is given when at least one of the categories mortality, anti-feedant effect, and growth inhibition is higher than the untreated sample.

[3] = test system: Plutella xylostella (Diamond Back Moth); test: Plutella xylostella (diamond back moth), artificial diet, eggs, 24-well; details: 192 h, application rate of 200 ppm, eggs on artificial diet, 8 days after infestation, read-out: control in at least one of the two categories (mortality or growth inhibition)
Description: Example B5: Plutella xylostella (Diamond Back Moth)
24-well microtiter plates with artificial diet were treated with aqueous test solutions prepared from 10,000 ppm DMSO stock solutions by pipetting. After drying, Plutella eggs were pipetted through a plastic stencil onto a gel blotting paper and the plate was closed with it. The samples were assessed for mortality and growth inhibition in comparison to untreated samples 8 days after infestation.

[4] = test system: Diabrotica balteata (corn root worm); test: Diabrotica balteata (corn root worm), sprayed maize sprouts; details: 96 h, application rate of 200 ppm, L2 larvae, 4 days after infestation, read-out: control in at least one of the two categories (mortality or growth inhibition)
Description: Example B2: Diabrotica Balteata (Corn Root Worm)
Maize sprouts placed onto an agar layer in 24-well microtiter plates were treated with aqueous test solutions prepared from 10,000 ppm DMSO stock solutions by spraying. After drying, the plates were infested with L2 larvae (6 to 10 per well). The samples were assessed for mortality and growth inhibition in comparison to untreated samples 4 days after infestation.

[5] = test system: Euschistus heros (Neotropical Brown Stink Bug); test: Euschistus heros (neotropical brown stink bug), sprayed soybean leaves; details: 120 h, application rate of 200 ppm, N2 nymphs, 5 days after infestation, read-out: control in at least one of the two categories (mortality or growth inhibition)
Description: Example B3: Euschistus heros(Neotropical Brown Stink Bug)
Soybean leaves on agar in 24-well microtiter plates were sprayed with aqueous test solutions prepared from 10,000 ppm DMSO stock solutions. After drying the leaves were infested with N2 nymphs. The samples were assessed for mortality and growth inhibition in comparison to untreated samples 5 days after infestation.

[6] = test system: Myzus persicae (Green Peach Aphid); test: Myzus persicae (green peach aphid), intrinsic activity; details: 120 h, test rate of 12 ppm, sucrose solution through Parafilm, 5 days after infestation
Text: Example B8: Myzus persicae (Green Peach Aphid). Intrinsic Activity
Test compounds prepared from 10,000 ppm DMSO stock solutions were applied by pipette into 24-well microtiter plates and mixed with sucrose solution. The plates were closed with a stretched Parafilm. A plastic stencil with 24 holes was placed onto the plate and infested pea seedlings were placed directly on the Parafilm. The infested plate was closed with a gel blotting paper and another plastic stencil and then turned upside down. The samples were assessed for mortality 5 days after infestation.

[7] = test system: Tetranychus urticae (Two-Spotted Spider Mite); test: Tetranychus urticae (two-spotted spider mite), feeding/contact activity; details: 192 h
Description: Example B11: Tetranychus urticae (Two-Spotted Spider Mite):Feeding/Contact Activity
Bean leaf discs on agar in 24-well microtiter plates were sprayed with aqueous test solutions prepared from 10,000 ppm DMSO stock solutions. After drying the leaf discs were infested with a mite population of mixed ages. The samples were assessed for mortality on mixed population (mobile stages) 8 days after infestation.

[8] = test system: Plutella xylostella (Diamondback Moth); test: Plutella xylostella (diamondback moth), 96-well artificial diet, eggs; details: 216 h, application rate of 500 ppm, eggs/L1 larvae, 9 days after infestation
Description: Example B13: Plutella xylostella (Diamondback Moth)
96-well microtiter plates containing artificial diet were treated with aqueous test solutions, prepared from 10,000 ppm DMSO stock solutions, by a liquid handling robot. After drying, eggs (˜30 per well) were infested onto a netted lid which was suspended above the diet. The eggs hatch and L1 larvae move down to the diet. The samples were assessed for mortality 9 days after infestation.

CC(NC(=O)c1cc(C(F)(F)F)cc(C(F)(F)F)c1)c1ncnn1-c1ncc(OC(F)F)cn1 (stereo not drawn) [Compound P3, N-[1-[2-[5-(difluoromethoxy)pyrimidin-2-yl]-1,2,4-triazol-3-yl]ethyl]-3,5-bis(trifluoromethyl) benzamide]
≥ 80%: percent control (mortality, anti-feeding or growth inhibition) at 200 ppm [1] | percent control (mortality, anti-feedant effect or growth inhibition) at 200 ppm [2] | percent control (mortality or growth inhibition) at 200 ppm [3] | percent control (mortality or growth inhibition) at 200 ppm [4] | percent control (mortality or growth inhibition) at 200 ppm [5] | mortality at 12 ppm [6]

CC(NC(=O)c1cc(C(F)(F)F)cc(C(F)(F)F)c1)c1ncnn1-c1ncc(OCC(F)(F)F)cn1 (stereo not drawn) [Compound P4, N-[1-[2-[5-(2,2,2-trifluoroethoxy)pyrimidin-2-yl]-1,2,4-triazol-3-yl]ethyl]-3,5-bis(trifluoromethyl) benzamide]
≥ 80%: percent control (mortality, anti-feeding or growth inhibition) at 200 ppm [1] | percent control (mortality, anti-feedant effect or growth inhibition) at 200 ppm [2] | percent control (mortality or growth inhibition) at 200 ppm [3] | percent control (mortality or growth inhibition) at 200 ppm [4]

CC(NC(=O)c1cc(C(F)(F)F)cc(C(F)(F)F)c1)c1ncnn1-c1ncc(OCC(F)F)cn1 (stereo not drawn) [Compound P5, N-[1-[2-[5-(2,2-difluoroethoxy)pyrimidin-2-yl]-1,2,4-triazol-3-yl]ethyl]-3,5-bis(trifluoromethyl) benzamide]
≥ 80%: percent control (mortality, anti-feeding or growth inhibition) at 200 ppm [1] | percent control (mortality, anti-feedant effect or growth inhibition) at 200 ppm [2] | percent control (mortality or growth inhibition) at 200 ppm [3] | percent control (mortality or growth inhibition) at 200 ppm [4] | percent control (mortality or growth inhibition) at 200 ppm [5]

CC(NC(=O)c1cc(C(F)(F)F)cc(C(F)(F)F)c1)c1ncnn1-c1ccc(OC(F)(F)F)cn1 (stereo not drawn) [Compound P6, N-[1-[2-[5-(trifluoromethoxy)-2-pyridyl]-1,2,4-triazol-3-yl]ethyl]-3,5-bis(trifluoromethyl) benzamide]
≥ 80%: percent control (mortality, anti-feeding or growth inhibition) at 200 ppm [1] | percent control (mortality, anti-feedant effect or growth inhibition) at 200 ppm [2] | percent control (mortality or growth inhibition) at 200 ppm [3] | mortality at 200 ppm [7] | mortality at 500 ppm [8] | percent control (mortality or growth inhibition) at 200 ppm [4] | percent control (mortality or growth inhibition) at 200 ppm [5]

C[C@H](NC(=O)c1cc(C(F)(F)F)cc(C(F)(F)F)c1)c1ncnn1-c1ncc(OC(F)(F)F)cn1 [Compound P7, N-[(1S)-1-[2-[5-(trifluoromethoxy)pyrimidin-2-yl]-1,2,4-triazol-3-yl]ethyl]-3,5-bis(trifluoromethyl) benzamide]
≥ 80%: percent control (mortality, anti-feeding or growth inhibition) at 200 ppm [1] | percent control (mortality or growth inhibition) at 200 ppm [3] | percent control (mortality or growth inhibition) at 200 ppm [4]

CC(NC(=O)c1cc(C(F)(F)F)cc(C(F)(F)F)c1)c1ncnn1-c1ccc(OCC(F)(F)F)cn1 (stereo not drawn) [Compound P8, N-[1-[2-[5-(2,2,2-trifluoroethoxy)-2-pyridyl]-1,2,4-triazol-3-yl]ethyl]-3,5-bis(trifluoromethyl)benzamide]
≥ 80%: percent control (mortality, anti-feeding or growth inhibition) at 200 ppm [1] | percent control (mortality, anti-feedant effect or growth inhibition) at 200 ppm [2] | percent control (mortality or growth inhibition) at 200 ppm [3] | percent control (mortality or growth inhibition) at 200 ppm [4]

CC(NC(=O)c1cc(C(F)(F)F)cc(C(F)(F)F)c1)c1ncnn1-c1ccc(OCC(F)F)cn1 (stereo not drawn) [Compound P9, N-[1-[2-[5-(2,2-difluoroethoxy)-2-pyridyl]-1,2,4-triazol-3-yl]ethyl]-3,5-bis(trifluoromethyl) benzamide]
≥ 80%: percent control (mortality, anti-feeding or growth inhibition) at 200 ppm [1] | percent control (mortality, anti-feedant effect or growth inhibition) at 200 ppm [2] | percent control (mortality or growth inhibition) at 200 ppm [3] | percent control (mortality or growth inhibition) at 200 ppm [4]

CC(NC(=O)c1cc(C(F)(F)F)cc(C(F)(F)F)c1)c1ncnn1-c1ccc(O/C=C\C(F)(F)F)cn1 (stereo not drawn) [Compound P10, 3,5-bis(trifluoromethyl)-N-[1-[2-[5-[(Z)-3,3,3-trifluoroprop-1-enoxy]-2-pyridyl]-1,2,4-triazol-3-yl]ethyl]benzamide]
≥ 80%: percent control (mortality, anti-feedant effect or growth inhibition) at 200 ppm [2] | percent control (mortality or growth inhibition) at 200 ppm [3] | mortality at 500 ppm [8]

CC(NC(=O)c1cc(C(F)(F)F)cc(C(F)(F)F)c1)c1ncnn1-c1ccc(OC(F)F)cn1 (stereo not drawn) [Compound P11, N-[1-[2-[5-(difluoromethoxy)-2-pyridyl]-1,2,4-triazol-3-yl]ethyl]-3,5-bis(trifluoromethyl) benzamide]
≥ 80%: percent control (mortality, anti-feeding or growth inhibition) at 200 ppm [1] | percent control (mortality, anti-feedant effect or growth inhibition) at 200 ppm [2] | percent control (mortality or growth inhibition) at 200 ppm [3] | mortality at 500 ppm [8] | percent control (mortality or growth inhibition) at 200 ppm [4]

CC(NC(=O)c1cc(OCC(F)F)cc(C(F)(F)F)c1)c1ncnn1-c1ncc(OC(F)F)cn1 (stereo not drawn) [Compound P12, 3-(2,2-difluoroethoxy)-N-[1-[2-[5-(difluoromethoxy)pyrimidin-2-yl]-1,2,4-triazol-3-yl]ethyl]-5-(trifluoromethyl) benzamide]
≥ 80%: percent control (mortality, anti-feeding or growth inhibition) at 200 ppm [1] | percent control (mortality, anti-feedant effect or growth inhibition) at 200 ppm [2] | percent control (mortality or growth inhibition) at 200 ppm [3] | mortality at 12 ppm [6]
